This is an account of results in ChEMBL document CHEMBL1201862, “PubChem BioAssay data set” (2004).

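Each compound was tested at five concentrations against cells in 96-well plates for 48 hours. GI50 marks 50% less growth.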 Calls of active or inactive are those of the source. Cut-off read from the data, not from the text of the source: active = GI50 up to about 1.1 µM and inactive = higher.

Test systems include A549; MDA-MB-435; SK-OV-3; RPMI-8226; EKVX; K562; RXF 393; MOLT-4; SR; UACC-62; SK-MEL-2; SNB-19; Hs-578T; SF-539; HCT-116; CAKI-1; NCI/ADR-RES; HOP-92; TK-10; OVCAR-4.
Test in all cases: growth of human tumour cells (NCI), 48 h

Take `NS(=O)(=O)c1ccc(NC(=O)Nc2cccc3ccccc23)cc1`: the GI50 is 40.7 µM (inactive) in the test on A549; 81.8 µM (inactive) with MDA-MB-435; 42.8 µM (inactive) in the test with SK-OV-3; > 100 µM (inactive) with RPMI-8226; 28.4 µM (inactive) in the test with EKVX; > 100 µM (inactive) with K562. Also, the GI50 in the test with RXF 393 is 30.5 µM (inactive); in the test on MOLT-4, > 100 µM (inactive); in the test on SR, 72.3 µM (inactive); with UACC-62, 23.6 µM (inactive); with SK-MEL-2 it was > 100 µM (inactive); in the test on SNB-19, 21.1 µM (inactive). Also, the GI50 in the test on Hs-578T was 42.2 µM (inactive); in the test on SF-539, 23.8 µM (inactive); in the test with HCT-116, 39.8 µM (inactive); in the test with CAKI-1, > 100 µM (inactive); in the test with NCI/ADR-RES it was 46 µM (inactive); in the test with HOP-92, 35.6 µM (inactive). The GI50 was 31 µM (inactive) in the test with TK-10 and 42.2 µM (inactive) in the test on OVCAR-4.
As for `O=[N+]([O-])c1ccc2nc(=S)[nH]n2c1`, the GI50 in the test with A549, in the test with MDA-MB-435, in the test with SK-OV-3, in the test on RPMI-8226, in the test on EKVX and in the test with K562 was > 100 µM (inactive) throughout. Besides, the GI50 with RXF 393, in the test with MOLT-4, in the test on SR, in the test on UACC-62, in the test on SK-MEL-2 and in the test with SNB-19 was > 100 µM (inactive) each time. Besides, the GI50 in the test on Hs-578T, in the test on SF-539, with HCT-116, in the test on CAKI-1, in the test on NCI/ADR-RES and in the test on HOP-92 was > 100 µM (inactive) each time. The GI50 in the test with TK-10 and in the test with OVCAR-4 was > 100 µM (inactive) each time.
With `CN(Cc1ccccc1)/C(=N\C#N)N(Cc1ccccc1)Cc1ccccc1`, the GI50 with A549 is 31 µM (inactive); with MDA-MB-435, 15.1 µM (inactive); in the test with SK-OV-3, 29 µM (inactive); in the test on RPMI-8226 it was 21 µM (inactive); with EKVX, 34.6 µM (inactive); with K562, 25.2 µM (inactive). In addition, the GI50 in the test on RXF 393 was 28.9 µM (inactive); in the test with MOLT-4, 10.5 µM (inactive); with SR, 0.0383 µM (active); with UACC-62, 20.4 µM (inactive); in the test with SK-MEL-2 it was 20.3 µM (inactive); in the test on SNB-19, 40.2 µM (inactive). The GI50 with Hs-578T was 34.8 µM (inactive); with SF-539, 19.8 µM (inactive); in the test on HCT-116 it was 18.7 µM (inactive); in the test on CAKI-1, 20.1 µM (inactive); in the test on NCI/ADR-RES, 19.8 µM (inactive); with HOP-92, 16.9 µM (inactive). In addition, the values for the GI50 in the test on TK-10 and with OVCAR-4 were 33 µM (inactive) and 24.4 µM (inactive), respectively.
On to `COc1ccc(C(CC(C)=O)c2c(O)c3ccccc3oc2=O)cc1OC` (stereo not given), for which the GI50 with A549, in the test with MDA-MB-435, in the test on SK-OV-3, with RPMI-8226, in the test on EKVX and with K562 was > 100 µM (inactive) throughout. The GI50 with RXF 393, in the test on MOLT-4, with SR, with UACC-62, in the test with SK-MEL-2 and with SNB-19 was > 100 µM (inactive) in each case. For the same compound, the GI50 in the test with Hs-578T, in the test on SF-539, in the test on HCT-116, with CAKI-1, in the test on NCI/ADR-RES and in the test on HOP-92 was > 100 µM (inactive) throughout. Besides, the GI50 in the test with TK-10 and with OVCAR-4 was > 100 µM (inactive) in each case.
